Assay results reported in ChEMBL document CHEMBL1201862, “PubChem BioAssay data set” (2004).
Active and inactive are the calls of the source. Rule as the data show it, for most assays here: actives have a measured EC50 and inactives only a lower limit.

Columns and labels:
[1] = target: T1, Calpain-2 catalytic subunit (Sus scrofa, UniProt P43367); experiment: m-calpain protease blockers, concentration series – biochemical, fluorogenic peptide substrate, dose response (AID 1420); assay type: functional
T1 sequence (P43367 whole entry): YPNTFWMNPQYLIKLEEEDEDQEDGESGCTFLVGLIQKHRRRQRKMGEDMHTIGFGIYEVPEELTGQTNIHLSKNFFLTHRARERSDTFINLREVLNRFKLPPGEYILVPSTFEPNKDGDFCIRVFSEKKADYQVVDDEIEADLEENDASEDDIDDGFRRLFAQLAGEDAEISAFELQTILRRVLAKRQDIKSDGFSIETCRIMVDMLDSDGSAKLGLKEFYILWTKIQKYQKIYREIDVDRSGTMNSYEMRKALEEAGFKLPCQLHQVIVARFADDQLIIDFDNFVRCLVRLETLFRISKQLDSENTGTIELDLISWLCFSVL

[2] = A Cell Based Secondary Assay To Explore Cytotoxicity of Compounds that Sensitize Mycobacterium Tuberculosis to Beta-Lactam Antibiotics.; assay type: functional
Cytochrome P450 3A4 = Cytochrome P450 3A4 (Homo sapiens, UniProt P08684); conditions: Potency;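 also: confirmatory qHTS run detecting inhibitors and substrates of CYP3A4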
BJ [3] = experiment: BJ-TERT-LT-ST fibroblast viability loss – cell-based, RAS-independent, luminescence, dose response (AID 1935); assay type: functional; conditions: Homo sapiens;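 also: BJ fibroblasts immortalized with TERT plus LT and ST oncogenes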
BJ [4] = experiment: BJ-TERT fibroblast viability loss – cell-based, RAS-independent, luminescence, dose response (AID 1933); assay type: functional; conditions: Homo sapiens
[5] = Luminescence Cell-Based Dose Response HTS to Identify Inhibitors of 5'UTR Stem-Loop Driven Prion Protein mRNA Translation in H4 Neuroglioblastoma Cells. [Related pubchem assays: 1827 (Project Summary), 1813 (Primary HTS)]; assay type: functional
[6] = alpha-synuclein stem-loop luciferase translation blockers – H4 neuroglioma cells, luminescence, confirmation (AID 1988); assay type: functional, cell-based
[7] = DRD fibroblast viability loss – cell-based, non-viral oncogenic, luminescence, dose response (AID 1934); assay type: functional; conditions: Homo sapiens
[8] = luciferase reporter signal reduction – luminescence, H4-C neuroglioblastoma cells, dose response (AID 2458); assay type: functional, cell-based;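 also: H4 neuroglioblastoma cells stably carrying a luciferase reporter gene fusion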
cells = assay type: functional, cell-based
[9] = Shn3 3'UTR reporter signal decrease – cell-based, Clone20 osteoblasts, firefly luciferase, cherry-pick, set 2, Schnurri-3 inhibitor project, dose response (AID 720490); assay type: functional;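 also: actives lower the luminescence signal as inhibitors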
BJ [10] = experiment: cells; assay type: functional, cell-based; conditions: Homo sapiens
[11] = luciferase reporter signal suppression in cells – H4 neuroglioma cells, luminescence, dose response (AID 1990); assay type: functional, cell-based
[12] = reduction of Shn3 3'UTR-driven luciferase in osteoblasts – cell-based, Clone20 osteoblasts, firefly luciferase, cherry-picked, dose response (AID 624132); assay type: functional;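 also: firefly luciferase luminescence from reporter carrying the Shn3 3'UTR in osteoblasts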
[13] = loss of viability in HepG2 cells – cell-based, CellTiter-Glo, cherry-picked, cytotoxicity control for Shn3 inhibitor project, dose response (AID 624134); assay type: functional
[14] = alpha-synuclein stem-loop translation blockers – luminescence, H4 neuroglioblastoma cells, dose confirmation, confirmation (AID 2454); assay type: functional, cell-based;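 also: H4 neuroglioblastoma cells carrying an alpha-synuclein 5'UTR luciferase reporter; potency for inhibition of the luciferase signal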
[15] = HEK-293T cell viability reduction – luminescence, B-cell screen hits, cytotoxicity control for BCR NF-kB inhibitor project, dose response (AID 489021); assay type: functional, cell-based;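 also: HEK-293T cells carrying an NF-kB luciferase reporter; cells exposed to compound for about 14 hours before viability readout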
[16] = target: T2, Lytic switch protein BZLF1 (Epstein-Barr virus (strain B95-8) (HHV-4) (Human herpesvirus 4), UniProt P03206); experiment: inhibition of BZLF1 ZTA DNA binding – biochemical, fluorescence polarization, Epstein-Barr virus, 1536-well, counter-screen for EBNA-1 inhibitor project, dose response (AID 2377); set-up: species or system human gammaherpesvirus 4;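 also: fluorescence polarization of Cy5-labelled ZRE DNA probe bound by purified Zta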
T2 sequence (P03206 whole entry): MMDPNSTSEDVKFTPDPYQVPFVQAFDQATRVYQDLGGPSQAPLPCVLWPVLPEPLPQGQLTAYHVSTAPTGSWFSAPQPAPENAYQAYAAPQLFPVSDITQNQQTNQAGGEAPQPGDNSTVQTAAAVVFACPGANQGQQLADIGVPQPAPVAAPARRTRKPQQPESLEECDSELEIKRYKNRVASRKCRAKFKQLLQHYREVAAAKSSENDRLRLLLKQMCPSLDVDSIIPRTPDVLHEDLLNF

[17] = tested on: Streptococcus sp. 'group A'; experiment: Streptococcus pyogenes SK(-)GAS viability under kanamycin – luminescence, BacTiterGlo, confirmation, counter-screen for streptokinase expression inhibitor project, dose response (AID 1900); assay type: functional, organism-based
Streptococcus = experiment: GAS UMAA2166 growth inhibition – luminescence, BacTiterGlo, counter-screen for streptokinase expression inhibitor project, dose response (AID 1915); assay type: functional, organism-based;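 also: potency for reduction of bacterial viability or growth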
Streptokinase A = target: T3, Streptokinase A (Streptococcus pyogenes serotype M1, UniProt P10520); experiment: viability-normalized secreted streptokinase activity reduction – plasminogen activation absorbance, OD405, dose response (AID 1914); assay type: functional, Streptococcus pyogenes M1 GAS;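 also: secreted streptokinase activity via plasminogen activation per viability signal from cell pellet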
T3 sequence (P10520 whole entry): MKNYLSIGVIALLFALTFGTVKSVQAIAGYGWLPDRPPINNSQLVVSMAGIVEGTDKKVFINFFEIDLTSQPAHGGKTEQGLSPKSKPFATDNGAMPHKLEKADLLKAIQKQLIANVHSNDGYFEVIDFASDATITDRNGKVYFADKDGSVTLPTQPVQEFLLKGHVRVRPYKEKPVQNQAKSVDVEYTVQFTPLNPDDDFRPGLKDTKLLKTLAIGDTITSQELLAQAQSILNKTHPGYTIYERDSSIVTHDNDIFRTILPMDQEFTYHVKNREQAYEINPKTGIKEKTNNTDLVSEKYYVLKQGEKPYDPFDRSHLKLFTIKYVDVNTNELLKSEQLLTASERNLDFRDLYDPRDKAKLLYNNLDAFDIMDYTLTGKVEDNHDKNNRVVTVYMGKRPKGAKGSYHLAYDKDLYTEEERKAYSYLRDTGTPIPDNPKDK

[18] = target: T4, Epstein-Barr nuclear antigen 1 (Epstein-Barr virus (strain B95-8) (HHV-4) (Human herpesvirus 4), UniProt P03211); experiment: inhibition of EBV nuclear antigen 1 DNA binding – biochemical, fluorescence polarization, 1536-well, dose response (AID 2381); set-up: species or system human gammaherpesvirus 4;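 also: fluorescence polarization of a Cy5 DNA probe bound by EBNA-1 protein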
T4 sequence (P03211 whole entry): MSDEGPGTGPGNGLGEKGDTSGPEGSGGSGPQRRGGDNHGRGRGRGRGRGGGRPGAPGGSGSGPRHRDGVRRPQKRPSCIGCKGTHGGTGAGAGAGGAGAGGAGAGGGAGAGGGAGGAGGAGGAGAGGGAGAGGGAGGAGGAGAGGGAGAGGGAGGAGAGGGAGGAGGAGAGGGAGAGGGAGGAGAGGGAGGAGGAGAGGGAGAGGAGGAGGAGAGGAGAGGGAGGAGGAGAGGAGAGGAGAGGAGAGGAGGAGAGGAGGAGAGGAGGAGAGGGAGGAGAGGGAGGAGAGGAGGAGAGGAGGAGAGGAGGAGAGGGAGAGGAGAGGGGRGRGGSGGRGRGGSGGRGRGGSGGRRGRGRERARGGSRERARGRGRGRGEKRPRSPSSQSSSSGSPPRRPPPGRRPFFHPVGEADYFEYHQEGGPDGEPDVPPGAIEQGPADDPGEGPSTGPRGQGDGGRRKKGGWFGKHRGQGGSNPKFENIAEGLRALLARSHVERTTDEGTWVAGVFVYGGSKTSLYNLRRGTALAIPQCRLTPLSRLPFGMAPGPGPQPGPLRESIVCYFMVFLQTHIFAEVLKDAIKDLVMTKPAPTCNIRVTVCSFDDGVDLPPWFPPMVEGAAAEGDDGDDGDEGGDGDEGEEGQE

[19] = target: Glyceraldehyde-3-phosphate dehydrogenase (Homo sapiens, UniProt P04406)
[20] = target: Luciferin 4-monooxygenase (Photinus pyralis, UniProt P08659); experiment: Counter Screen for Luciferase-based Assay Positives. [Related pubchem assays: 620, 618, 411 ]
HT-1080 = experiment: HT1080 cell viability loss – fluorescence readout (AID 620); assay type: functional, cell-based; conditions: Homo sapiens

Chain of Cytochrome P450 3A4 (P08684 whole entry): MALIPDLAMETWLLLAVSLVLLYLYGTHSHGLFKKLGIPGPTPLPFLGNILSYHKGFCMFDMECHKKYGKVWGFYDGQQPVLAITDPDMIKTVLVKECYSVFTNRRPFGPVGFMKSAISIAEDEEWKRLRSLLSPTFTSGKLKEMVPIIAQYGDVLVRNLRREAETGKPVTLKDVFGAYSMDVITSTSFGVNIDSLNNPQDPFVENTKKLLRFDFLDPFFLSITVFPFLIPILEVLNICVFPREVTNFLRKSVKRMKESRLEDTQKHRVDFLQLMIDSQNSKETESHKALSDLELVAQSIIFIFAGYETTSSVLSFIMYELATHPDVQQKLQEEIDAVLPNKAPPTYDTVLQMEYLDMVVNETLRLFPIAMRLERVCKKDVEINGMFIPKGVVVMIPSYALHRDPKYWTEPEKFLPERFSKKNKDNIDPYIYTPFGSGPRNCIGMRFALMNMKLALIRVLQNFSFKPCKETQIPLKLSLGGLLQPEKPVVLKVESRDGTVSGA
Chain of Luciferin 4-monooxygenase (P08659 whole entry): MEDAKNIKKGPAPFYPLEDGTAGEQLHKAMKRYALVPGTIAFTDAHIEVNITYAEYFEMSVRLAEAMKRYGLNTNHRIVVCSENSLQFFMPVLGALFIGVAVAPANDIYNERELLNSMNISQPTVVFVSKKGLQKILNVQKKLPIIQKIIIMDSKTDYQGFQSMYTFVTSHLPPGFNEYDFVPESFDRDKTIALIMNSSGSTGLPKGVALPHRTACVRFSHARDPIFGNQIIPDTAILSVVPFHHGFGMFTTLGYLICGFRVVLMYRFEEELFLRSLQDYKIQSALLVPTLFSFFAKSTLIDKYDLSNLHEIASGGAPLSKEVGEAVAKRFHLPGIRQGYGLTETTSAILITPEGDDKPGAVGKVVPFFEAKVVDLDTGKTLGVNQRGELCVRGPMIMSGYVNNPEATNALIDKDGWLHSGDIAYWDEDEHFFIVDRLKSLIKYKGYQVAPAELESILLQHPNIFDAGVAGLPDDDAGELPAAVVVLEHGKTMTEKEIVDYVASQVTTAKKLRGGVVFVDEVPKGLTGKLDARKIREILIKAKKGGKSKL
Chain of Glyceraldehyde-3-phosphate dehydrogenase (P04406 whole entry): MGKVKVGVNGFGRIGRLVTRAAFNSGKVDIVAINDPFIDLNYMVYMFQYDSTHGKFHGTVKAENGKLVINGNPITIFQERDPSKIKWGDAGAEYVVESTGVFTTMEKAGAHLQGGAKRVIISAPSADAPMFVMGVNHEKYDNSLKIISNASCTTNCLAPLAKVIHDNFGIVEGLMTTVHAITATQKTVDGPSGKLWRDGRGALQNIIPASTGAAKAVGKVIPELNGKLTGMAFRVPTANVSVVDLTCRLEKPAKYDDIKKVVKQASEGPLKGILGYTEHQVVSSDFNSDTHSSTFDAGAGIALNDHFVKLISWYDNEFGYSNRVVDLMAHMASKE

CCc1ccc2c(c1)C(c1ccc([N+](=O)[O-])cc1)=NNC(c1ccc(C)cc1)=N2
IC50 [1]: 15.6 µM (not active) | CC50 [2]: > 40 µM (active)

Nc1cc(=O)[nH]c(=O)n1CC1CC1
AC50 (Cytochrome P450 3A4): 3.98 µM (inconclusive)

COc1ccc(OCc2cccc(C(=O)O)c2)cc1
EC50 (BJ [3]): > 150 µM (inconclusive) | EC50 (BJ [4]): 18.8 µM (active) | EC50 [5]: 0.121 µM (active) | EC50 [6]: < 0.1 µM (active) | EC50 [7]: 9.09 µM (inconclusive) | EC50 [8]: 0.26 µM (active) | EC50 (cells): 0.307 µM (active) | AC50 [9]: 2.01 µM (active) | EC50 (BJ [10]): 8.86 µM (active) | EC50 [11]: 0.305 µM (active) | AC50 [12]: 1.39 µM (active) | AC50 [13]: > 70 µM (inactive) | EC50 [14]: 0.267 µM (active)

COc1ccc(C=C(C(C)=O)C(C)=O)cc1OC
IC50 [15]: > 80 µM (inactive)

Cn1c(O)c(N=NC(=O)c2cc(-c3cccs3)nc3ccccc23)c2ccccc21
IC50 [16]: > 111 µM (not active) | EC50 [17]: 9.12 µM (active) | EC50 (Streptococcus): 16.7 µM (active) | EC50 (Streptokinase A): > 150 µM (not active) | IC50 [18]: 2.73 µM (active)

CCOc1cc(N2CCOCC2)c(OCC)cc1NC(=O)COc1cccc(CC)c1
CC50 [2]: > 40 µM (active)

CCOC(=O)C1CCCCN1C(=O)CCc1c(C)nc2cc(-c3ccccc3)nn2c1C (configuration not stated)
IC50 [19]: > 100 µM (not active) | EC50 [5]: 11.1 µM (active) | EC50 [6]: < 0.1 µM (active) | EC50 [8]: 0.972 µM (active) | EC50 (cells): > 12 µM (not active) | EC50 [20]: > 100 µM (not active) | EC50 [11]: < 0.1 µM (active) | EC50 (HT-1080): > 50 µM (not active) | EC50 [14]: 1.33 µM (active)
